Measured values published in patent US20150315188A1, “COMPOUNDS AND METHODS FOR TREATMENT OF HYPERTENSION” (MEDIVATION TECHNOLOGIES, INC., priority 2012, published 2015).

What was measured:
Design in all cases: purchased Milipore (Millipore)
[1] = target: T1, Human adrenergic α2B receptor (Homo sapiens, UniProt P18089); test: Radioligand binding, adrenergic α2B (Protocol Group B); conditions: Protocol Group B; for Percentage inhibition of ligand binding, Adrenergic α2B (10 nM) / inhibition at 0.01 µM: 10 nM compound; for Percentage inhibition of ligand binding, Adrenergic α2B (30 nM) / inhibition at 0.03 µM: 30 nM compound; for Percentage inhibition of ligand binding, Adrenergic α2B (30 nM): 0.03 µM; for Percentage inhibition of ligand binding, Adrenergic α2B (0.1 μM) / inhibition at 0.1 µM: 0.1 μM compound; for inhibition at 0.01 µM: read-out: Percentage inhibition of ligand binding, Adrenergic α2B (10 nM); for inhibition at 0.03 µM: read-out: Percentage inhibition of ligand binding, Adrenergic α2B (30 nM); for inhibition at 0.1 µM: read-out: Percentage inhibition of ligand binding, Adrenergic α2B (0.1 μM); for Ki: estimated Ki, read-out: Ki α2B
T1 sequence (P18089 1-450): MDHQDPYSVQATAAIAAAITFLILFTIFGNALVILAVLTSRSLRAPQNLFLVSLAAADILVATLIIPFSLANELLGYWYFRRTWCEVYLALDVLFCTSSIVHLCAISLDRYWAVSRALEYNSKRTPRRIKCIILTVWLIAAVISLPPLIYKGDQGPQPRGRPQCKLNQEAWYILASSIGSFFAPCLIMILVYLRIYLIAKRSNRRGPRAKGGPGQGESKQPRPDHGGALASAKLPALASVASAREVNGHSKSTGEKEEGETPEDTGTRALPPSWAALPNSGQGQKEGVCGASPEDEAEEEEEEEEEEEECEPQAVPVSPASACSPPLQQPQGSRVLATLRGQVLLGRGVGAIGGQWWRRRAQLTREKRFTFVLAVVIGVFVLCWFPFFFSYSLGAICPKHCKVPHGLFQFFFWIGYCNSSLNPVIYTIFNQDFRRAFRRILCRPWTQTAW
Summary of the method: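 Recombinant human α2B receptor membranes incubated with compounds in 50 mM Tris-HCl pH 7.4, 5 mM MgCl2, 1 mM CaCl2, 0.2% BSA, 1% DMSO vehicle. Non-specific binding defined with 10 μM rauwolscine. Values are percent inhibition of specific binding or estimated Ki.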

[2] = target: T2, Human adrenergic α2A receptor (Homo sapiens, UniProt P08913); test: Radioligand binding, adrenergic α2A (Protocol Group B); conditions: Protocol Group B; for Percentage inhibition of ligand binding, Adrenergic α2A (0.1 μM): 0.1 μM compound
T2 sequence (P08913 1-465): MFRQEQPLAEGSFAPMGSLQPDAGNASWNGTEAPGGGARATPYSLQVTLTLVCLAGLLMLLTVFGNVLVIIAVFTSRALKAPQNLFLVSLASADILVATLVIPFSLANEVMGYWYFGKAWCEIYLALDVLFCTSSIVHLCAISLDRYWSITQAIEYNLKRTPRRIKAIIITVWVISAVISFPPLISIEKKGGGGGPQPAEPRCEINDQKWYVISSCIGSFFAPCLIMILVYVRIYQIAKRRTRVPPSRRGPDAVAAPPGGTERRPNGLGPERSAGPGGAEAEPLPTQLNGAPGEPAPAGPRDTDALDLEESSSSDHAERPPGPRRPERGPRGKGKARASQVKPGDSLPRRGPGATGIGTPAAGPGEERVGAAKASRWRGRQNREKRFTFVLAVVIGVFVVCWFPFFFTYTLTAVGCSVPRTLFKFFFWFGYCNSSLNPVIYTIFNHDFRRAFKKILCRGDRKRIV
Summary of the method: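 Membranes from recombinant cells expressing the receptor, in 50 mM Tris-HCl pH 7.4 with 5 mM MgCl2, 1 mM CaCl2, 0.2% BSA; compounds incubated with 2 nM [^3H]MK-912 for 60 min at 25° C. Nonspecific binding defined by 10 μM rauwolscine; filtration, counting; percent inhibition of specific binding, or estimated Ki.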

[3] = target: T3, Human adrenergic α1B receptor (Homo sapiens, UniProt P35368); test: Radioligand binding, adrenergic α1B (Protocol Group B); conditions: Protocol Group B; for Percentage inhibition of ligand binding, Adrenergic α1B (0.1 μM): 0.1 μM compound
T3 sequence (P35368 1-520): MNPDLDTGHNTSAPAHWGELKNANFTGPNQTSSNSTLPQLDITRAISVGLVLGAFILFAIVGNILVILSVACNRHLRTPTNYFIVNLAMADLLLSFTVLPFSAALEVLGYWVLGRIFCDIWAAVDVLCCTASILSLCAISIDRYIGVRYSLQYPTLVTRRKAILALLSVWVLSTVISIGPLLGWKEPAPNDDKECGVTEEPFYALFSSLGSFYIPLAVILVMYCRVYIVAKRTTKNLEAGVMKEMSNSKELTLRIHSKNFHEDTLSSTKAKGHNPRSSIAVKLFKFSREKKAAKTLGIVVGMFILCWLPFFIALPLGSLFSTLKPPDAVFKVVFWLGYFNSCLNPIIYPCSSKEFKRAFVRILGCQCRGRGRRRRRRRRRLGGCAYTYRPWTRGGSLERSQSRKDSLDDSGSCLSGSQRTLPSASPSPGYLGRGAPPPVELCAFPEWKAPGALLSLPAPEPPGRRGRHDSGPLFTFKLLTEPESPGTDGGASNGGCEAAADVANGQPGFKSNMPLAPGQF
Summary of the method: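 Recombinant human α1B membranes incubated with test compound and 0.3 nM [3H]prazosin, 60 min at 25 °C, in 50 mM Tris-HCl pH 7.4, 10 mM MgCl2, 1 mM EDTA; nonspecific binding with 10 μM prazosin. Filter-bound radioactivity counted; values are % inhibition of specific binding or estimated Ki.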

Percentage inhibition of ligand binding, Adrenergic α2B (10 nM) ([1]; 0.01 µM) [%] | Percentage inhibition of ligand binding, Adrenergic α2B (30 nM) [1] [%] | Percentage inhibition of ligand binding, Adrenergic α2B (0.1 μM) [1] [%] | Percentage inhibition of ligand binding, Adrenergic α2A (0.1 μM) [2] [%] | Percentage inhibition of ligand binding, Adrenergic α2A (0.3 μM) ([2]; 0.3 μM compound) [%] | Percentage inhibition of ligand binding, Adrenergic α1B (0.1 μM) [3] [%] | Percentage inhibition of ligand binding, Adrenergic α1B (0.3 μM) ([3]; 0.3 μM compound) [%] | Percentage inhibition of ligand binding, Adrenergic α2B (10 nM) [1] [%] | inhibition at 0.01 µM [1] [%] | inhibition at 0.03 µM [1] [%] | inhibition at 0.1 µM [1] [%] | Ki [1] [nM] | inhibition at 0.3 µM ([2]; 0.3 μM compound, read-out: Percentage inhibition of ligand binding, Adrenergic α2A (0.3 μM)) [%] | inhibition at 0.3 µM ([3]; 0.3 μM compound, read-out: Percentage inhibition of ligand binding, Adrenergic α1B (0.3 μM)) [%] | Compound
−10 | 0 | 34 | −7 | −2 | 4 | 18 | – | – | – | – | – | – | – | Cc1ccc2c(c1)c1c(n2CC(O)c2ccccn2)CC2CCCN2C1 (single isomer, unassigned) [45d]
33 | 60 | 82 | 20 | 35 | 6 | 27 | – | – | – | – | – | – | – | Cc1ccc2c(c1)c1c(n2CC(C)(O)c2cncc(F)c2)CCN(C)C1 (single isomer, unassigned) [46a]
0 | 15 | 37 | −1 | 3 | 0 | 10 | – | – | – | – | – | – | – | Cc1ccc2c(c1)c1c(n2CC(C)(O)c2cncc(F)c2)CCN(C)C1 (single isomer, unassigned) [46b]
15 | 42 | 91 | 22 | 49 | 19 | 43 | – | – | – | – | – | – | – | Cc1cc2c3c(n(CC(C)(O)c4ccncc4)c2cc1Cl)CCN1CCCC31 (single isomer, unassigned) [50c]
−8 | −2 | 13 | −9 | −4 | −8 | 4 | – | – | – | – | – | – | – | Cc1cc2c3c(n(CC(C)(O)c4ccncc4)c2cc1Cl)CCN1CCCC31 (single isomer, unassigned) [50d]
– | 11 | 10 | 7 | 12 | −6 | 0 | 9 | – | – | – | – | – | – | CC(O)(Cn1c2c(c3cc(Cl)cc(F)c31)C1CCCN1CC2)c1ccncc1 (single isomer, unassigned) [52c]
– | – | 1 | −6 | 1 | −1 | 27 | – | 9 | 6 | – | – | – | – | CC(O)(Cn1c2c(c3cc(Cl)cc(F)c31)C1CCCN1CC2)c1ccncc1 (single isomer, unassigned) [52d]
– | – | – | 60 | – | 12 | – | – | 87 | 97 | 98 | 1.7 | 74 | 50 | CC(O)(Cn1c2c(c3cc(Cl)cc(F)c31)C1CCCN1CC2)c1cccnc1 (single isomer, unassigned) [53a]
74 | 91 | 97 | 34 | 54 | 4 | 33 | – | – | – | – | 1.8 | – | – | CC(O)(Cn1c2c(c3cc(Cl)cc(F)c31)C1CCCN1CC2)c1cccnc1 (single isomer, unassigned) [53b]
−4 | 4 | 1 | −10 | −15 | 1 | −6 | – | – | – | – | – | – | – | CC(O)(Cn1c2c(c3cc(Cl)cc(F)c31)C1CCCN1CC2)c1cccnc1 (single isomer, unassigned) [53c]
−3 | −4 | −5 | 0 | 5 | −16 | −8 | – | – | – | – | – | – | – | CC(O)(Cn1c2c(c3cc(Cl)cc(F)c31)C1CCCN1CC2)c1cccnc1 (single isomer, unassigned) [53d]
23 | – | – | 26 | 50 | 12 | 40 | – | – | 47 | 72 | – | – | – | CN1CCc2c(c3cc(C(F)(F)F)ccc3n2CC(OC2CCCC2)c2ccncc2)C1 (single isomer, unassigned) [60a]
6 | 28 | 59 | 3 | 12 | −9 | 8 | – | – | – | – | – | – | – | CN1CCc2c(c3cc(C(F)(F)F)ccc3n2CC(OC2CCCC2)c2ccncc2)C1 (single isomer, unassigned) [60b]
